In patent US8039487B2, “Piperidine-amide derivatives” (Hoffmann-La Roche Inc., priority 2007, dated 2011):
pIC50: −log10 of the molar value.

Target: T1, liver carnitine palmitoyl transferase 1 (L-CPT1) (Homo sapiens, UniProt P50416)
T1 construct: made in house; host or cells: Pichia pastoris strain X-33 (crude cell-free extract)
T1 sequence (P50416 1-773): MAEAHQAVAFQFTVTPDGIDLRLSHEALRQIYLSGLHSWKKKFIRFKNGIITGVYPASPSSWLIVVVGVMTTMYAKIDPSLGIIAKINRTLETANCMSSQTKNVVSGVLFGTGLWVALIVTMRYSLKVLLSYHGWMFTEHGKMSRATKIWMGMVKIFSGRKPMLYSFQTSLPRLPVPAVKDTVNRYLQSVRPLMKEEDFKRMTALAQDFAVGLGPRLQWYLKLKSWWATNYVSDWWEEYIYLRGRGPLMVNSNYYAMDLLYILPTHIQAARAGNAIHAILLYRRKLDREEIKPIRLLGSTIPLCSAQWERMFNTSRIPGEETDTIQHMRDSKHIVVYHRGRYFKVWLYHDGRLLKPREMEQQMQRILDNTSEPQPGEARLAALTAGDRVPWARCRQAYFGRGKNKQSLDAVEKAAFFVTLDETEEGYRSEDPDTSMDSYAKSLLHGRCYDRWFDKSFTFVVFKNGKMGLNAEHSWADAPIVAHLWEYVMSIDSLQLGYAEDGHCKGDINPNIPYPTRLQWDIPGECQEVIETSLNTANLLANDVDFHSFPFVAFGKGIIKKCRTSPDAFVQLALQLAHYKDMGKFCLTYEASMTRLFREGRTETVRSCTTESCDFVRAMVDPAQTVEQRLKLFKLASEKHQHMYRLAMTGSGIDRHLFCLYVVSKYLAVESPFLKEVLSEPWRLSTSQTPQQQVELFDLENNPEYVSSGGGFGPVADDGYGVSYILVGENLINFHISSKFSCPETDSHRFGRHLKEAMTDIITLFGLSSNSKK
Assay: L-CPT1 inhibition, spectrophotometric CPT activity assay with DTNB (Ellman's reagent)
Format: biochemical
Settings: human liver CPT1 expressed in P. pastoris, cell extracts; carnitine 500 μM, palmitoyl-CoA 80 μM, DTNB 300 μM, pH 7.4
Procedure: The following tests were carried out in order to determine the activity of the compounds of the present invention. Background information on the performed assays can be found in: Jackson et al., 1999, Biochem. J. 341, 483-489 and Jackson et al., 2000, J. Biol. Chem. 275, 19560-19566.
Human liver and muscle CPT1 cDNAs and rat CPT2 cDNA were subcloned in pGAPZB or pGAPZA, respectively. These plasmids were used to transform P. pastoris strain X-33 via electroporation after the preparation of electrocompetent cells. High copy number clones were selected where necessary using 0.5 or 1 mg/ml Zeocin. Cultures for activity measurements were induced for 16 h in YPD medium (1% yeast extract, 2% peptone, 2% glucose). Crude cell extracts were prepared by disrupting the cells with glass beads or French Press, depending on fermenter sizes. After centrifugation, the cell-free extracts were resuspended in cell breaking buffer (50 mM Tris, pH7.4, 100 mM KCl, 1 mM EDTA) in the presence of a protease inhibitor cocktail, before aliquoting and freezing at −20° C.
CPT activity was measured using a spectrophotometric assay using 5,5′-dithio-bis-(2-nitrobenzoic acid) (DTNB) also called Ellman's reagent. The HS-CoA released on the formation of acylcarnitine from carnitine (500 μM) and palmitoyl-CoA (80 μM) reduced DTNB (300 μM) forming 5-mercapto-(2-nitrobenzoic acid) which absorbed at 410 nm with a molar extinction coefficient of 13600 M^−1cm^−1. The assay buffer contained 120 mM KCl, 25 mM Tris, pH 7.4, 1 mM EDTA. This assay was used for the identification of selective inhibitors of the liver CPT1 isoform versus the muscle CPT1 and CPT2 isoforms.

| Structure (SMILES) | pIC50 |
| --- | --- |
| O=C(COc1ccccc1)N1CCCC[C@@H]1c1csc(-c2ccncc2)n1 [Example 32, 2-Phenoxy-1-[(R)-2-(2-pyridin-4-yl-thiazol-4-yl)-piperidin-1-yl]-ethanone] | 6.82 |
| COc1ccc(-c2nc([C@H]3CCCCN3C(=O)COc3ccccc3)cs2)cn1 [Example 33, 1-{(R)-2-[2-(6-Methoxy-pyridin-3-yl)-thiazol-4-yl]-piperidin-1-yl}-2-phenoxy-ethanone] | 7.10 |
| O=C(COc1ccccc1)N1CCCC[C@@H]1c1csc(-c2ccccn2)n1 [Example 34, 2-Phenoxy-1-[(R)-2-(2-pyridin-2-yl-thiazol-4-yl)-piperidin-1-yl]-ethanone] | 6.76 |
| O=C(COc1ccccc1)N1CCCC[C@@H]1c1csc(-c2ccc(F)cc2)n1 [Example 35, 1-{(R)-2-[2-(4-Fluoro-phenyl)-thiazol-4-yl]-piperidin-1-yl}-2-phenoxy-ethanone] | 6.81 |
| COC(=O)c1ccc(-c2nc([C@H]3CCCCN3C(=O)COc3ccccc3)cs2)cc1 [Example 36, 4-{4-[(R)-1-(2-Phenoxy-acetyl)-piperidin-2-yl]-thiazol-2-yl}-benzoic acid methyl ester] | 6.44 |
| O=C(COc1ccccc1)N1CCCC[C@@H]1c1csc(Cc2ccc(Cl)cc2)n1 [Example 37, 1-{(R)-2-[2-(4-Chloro-benzyl)-thiazol-4-yl]-piperidin-1-yl}-2-phenoxy-ethanone] | 6.14 |
| O=C(COc1ccccc1)N1CCCC[C@@H]1c1csc(C2COc3ccccc3O2)n1 (stereo partly drawn) [Example 38, 1-{(R)-2-[2-(2,3-Dihydro-benzo[1,4]dioxin-2-yl)-thiazol-4-yl]-piperidin-1-yl}-2-phenoxy-ethanone] | 6.40 |
| O=C(O)c1cccc(-c2nc([C@H]3CCCCN3C(=O)COc3ccccc3)cs2)c1 [Example 40, 3-{4-[(R)-1-(2-Phenoxy-acetyl)-piperidin-2-yl]-thiazol-2-yl}-benzoic acid] | 7.10 |
| O=C(O)c1ccc(-c2nc([C@H]3CCCCN3C(=O)COc3ccccc3)cs2)cc1 [Example 41, 4-{4-[(R)-1-(2-Phenoxy-acetyl)-piperidin-2-yl]-thiazol-2-yl}-benzoic acid] | 6.53 |
| O=C(O)c1cccc(-c2csc([C@H]3CCCCN3C(=O)COc3ccccc3)n2)n1 [Example 42, 6-{2-[(R)-1-(2-Phenoxy-acetyl)-piperidin-2-yl]-thiazol-4-yl}-pyridine-2-carboxylic acid] | 7.42 |
| O=C(O)c1cccc(-c2csc([C@H]3CCCCN3C(=O)COc3ccccc3)n2)c1 [Example 44, Sodium; 3-{2-[(R)-1-(2-phenoxy-acetyl)-piperidin-2-yl]-thiazol-4-yl}-benzoate] | 7.62 |
| COC(=O)c1cccc(-c2nc([C@H]3CCCCN3C(=O)COc3ccccc3)sc2C)c1 [Example 45, 3-{5-Methyl-2-[(R)-1-(2-phenoxy-acetyl)-piperidin-2-yl]-thiazol-4-yl}-benzoic acid methyl ester] | 6.52 |
| Cc1sc([C@H]2CCCCN2C(=O)COc2ccccc2)nc1-c1cccc(C(=O)O)c1 [Example 46, 3-{5-Methyl-2-[(R)-1-(2-phenoxy-acetyl)-piperidin-2-yl]-thiazol-4-yl}-benzoic acid] | 7.00 |
